The structures appear in SMILES notation. Where two headings read alike, the source gives them in different places.

These results are taken from patent publication US20130040983A1, “RAF KINASE INHIBITORS” (priority 2010, published 2013).

Assay [1] addresses V600E mutated B-RAF (Homo sapiens, UniProt P15056, V600E). Briefly: In vitro assay for inhibition of mutant B-RAF kinase (recombinant V600E B-RAF, MEK (K97R) substrate). Type of assay: biochemical. As to conditions: 10 nM recombinant V600E B-RAF, 1 μM MEK (K97R) substrate. The protocol: (§1) The ability of compounds described herein to inhibit RAF kinase activity was determined from biochemical kinase assays using recombinant RAF proteins as known in the art.
(§2) Solutions of varying concentrations of test compounds or vehicle were added to 10 nM recombinant wild-type B-RAF or V600E mutated B-RAF proteins incubated in the presence of different concentrations of ATP and 1 μM MEK (K97R) as substrate, as previously described (Wilhelm, S. M., et al., Cancer Res., 64: 7099-7109, 2004; Mason, C. S., et al., EMBO J. 18: 2137-2148, 1999; Marais, R., et al., J. Biol. Chem., 272: 4378-4383, 1997). At least triplicate determinations for each individual test compound concentration were made and data plotted as mean±standard deviation relative to the control vehicle.

The target in assay [2] is wild-type B-RAF (Homo sapiens, UniProt P15056). The experiment in a line: In vitro assay for inhibition of B-RAF kinase (recombinant wild-type B-RAF, MEK (K97R) substrate). Type of assay: biochemical. To be noted: 10 nM recombinant wild-type B-RAF, 1 μM MEK (K97R) substrate; read-out: BRAF IC50. The method, then: as §1
as §2, with “A-RAF, wild-type B-RAF,” for “B-RAF”, “wild-type C-RAF” for “V600E mutated B-RAF”
as §2

[3] abbreviates: class symbols, read-out: IC50 (μM) V600E B-Raf.

V600E mutated B-RAF, sequence (P15056 whole entry V600E): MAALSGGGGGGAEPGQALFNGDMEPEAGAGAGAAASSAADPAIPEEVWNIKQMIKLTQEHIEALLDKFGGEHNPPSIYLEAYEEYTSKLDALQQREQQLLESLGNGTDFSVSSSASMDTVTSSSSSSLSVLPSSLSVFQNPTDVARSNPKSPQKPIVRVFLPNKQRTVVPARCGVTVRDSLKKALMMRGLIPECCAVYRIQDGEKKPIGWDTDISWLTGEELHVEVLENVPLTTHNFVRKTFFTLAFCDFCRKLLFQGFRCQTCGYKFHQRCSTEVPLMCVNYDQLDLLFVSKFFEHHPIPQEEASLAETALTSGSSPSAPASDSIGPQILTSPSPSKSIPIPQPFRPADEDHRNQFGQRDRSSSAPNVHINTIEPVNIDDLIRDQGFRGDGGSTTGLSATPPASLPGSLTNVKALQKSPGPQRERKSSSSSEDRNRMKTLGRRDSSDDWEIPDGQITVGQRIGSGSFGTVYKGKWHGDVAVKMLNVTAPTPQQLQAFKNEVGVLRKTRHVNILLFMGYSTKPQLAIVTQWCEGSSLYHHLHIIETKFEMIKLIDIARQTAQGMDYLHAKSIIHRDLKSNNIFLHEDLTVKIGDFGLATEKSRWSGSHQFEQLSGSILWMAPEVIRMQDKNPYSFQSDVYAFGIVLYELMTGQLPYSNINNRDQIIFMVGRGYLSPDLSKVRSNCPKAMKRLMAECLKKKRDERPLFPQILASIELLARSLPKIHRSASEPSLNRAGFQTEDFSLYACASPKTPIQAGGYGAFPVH
wild-type B-RAF, sequence (P15056 whole entry): as the sequence (P15056 whole entry V600E) above, with E600V counted along it

On to `O=C(O)c1cccc(-c2[nH]c(-c3ccccc3)nc2-c2ccncc2)c1` [Example 1, 3-(2-phenyl-4-(pyridin-4-yl)-1H-imidazol-5-yl)benzoic acid], for which the concentration for half-maximal inhibition (IC50) – broadly, the concentration that inhibits the measured activity by half – in assay [1] (setting [3]) is 0.1 to 1 µM; in assay [1] (read-out: BRAF-V600E IC50), 0.13 µM; in assay [2], 3100 nM.
Turning to `CS(=O)(=O)Nc1cccc(-c2[nH]c(-c3ccccc3)nc2-c2ccncc2)c1` [Example 2, N-(3-(2-phenyl-4-(pyridin-4-yl)-1H-imidazol-5-yl)phenyl)methanesulfonamide], in assay [2], the IC50 came out at 800 nM.
`O=C(O)c1cccc(-c2cn(-c3ccccc3)nc2-c2ccncc2)c1` [Example 3, 3-(1-phenyl-3-(pyridin-4-yl)-1H-pyrazol-4-yl)benzoic acid]: the IC50 in assay [1] (setting [3]) was 0.1 to 1 µM.
Still for that read-out and setting: under `CCS(=O)(=O)Nc1cccc(-c2[nH]c(-c3ccccc3)nc2-c2ccncc2)c1` [Example 4, N-(3-(2-phenyl-4-(pyridin-4-yl)-1H-imidazol-5-yl)phenyl)ethanesulfonamide] stands 1 to 10 µM; under `CCCS(=O)(=O)Nc1cccc(-c2[nH]c(-c3ccccc3)nc2-c2ccncc2)c1` [Example 5, N-(3-(2-phenyl-4-(pyridin-4-yl)-1H-imidazol-5-yl)phenyl)propane-1-sulfonamide], 1 to 10 µM; under `O=C(O)c1cc(F)cc(-c2[nH]c(-c3ccccc3)nc2-c2ccncc2)c1` [Example 6, 3-fluoro-5-(2-phenyl-4-(pyridin-4-yl)-1H-imidazol-5-yl)benzoic acid], 0.1 to 1 µM.
Still for that read-out and setting: as for `O=C(O)c1cc(-c2[nH]c(-c3ccccc3)nc2-c2ccncc2)ccc1F` [Example 7, 2-fluoro-5-(2-phenyl-4-(pyridin-4-yl)-1H-imidazol-5-yl)benzoic acid], the figure is 0.1 to 1 µM; as for `O=C(O)c1cccc(-c2[nH]c(-c3ccccc3)nc2-c2ccncc2)c1F` [Example 8, 2-fluoro-3-(2-phenyl-4-(pyridin-4-yl)-1H-imidazol-5-yl)benzoic acid], 0.1 to 1 µM; as for `O=C(O)c1ccc(F)c(-c2[nH]c(-c3ccccc3)nc2-c2ccncc2)c1` [Example 9, 4-fluoro-3-(2-phenyl-4-(pyridin-4-yl)-1H-imidazol-5-yl)benzoic acid], 1 to 10 µM.
Still for that read-out and setting: as for `O=C(O)c1cc(-c2[nH]c(-c3ccccc3)nc2-c2ccncc2)ccc1Cl` [Example 10, 2-chloro-5-(2-phenyl-4-(pyridin-4-yl)-1H-imidazol-5-yl)benzoic acid], the figure is < 0.1 µM; as for `CS(=O)(=O)Nc1cc(-c2[nH]c(-c3ccccc3)nc2-c2ccncc2)ccc1Cl` [Example 12, N-(2-chloro-5-(2-phenyl-4-(pyridin-4-yl)-1H-imidazol-5-yl)phenyl)methanesulfonamide], 0.1 to 1 µM; as for `O=C(O)c1cccc(-c2nn(-c3ccccc3)cc2-c2ccncc2)c1` [Example 13, 3-(1-phenyl-4-(pyridin-4-yl)-1H-pyrazol-3-yl)benzoic acid], 0.1 to 1 µM.
Consider `O=C(O)c1cc(Cl)cc(-c2[nH]c(-c3ccccc3)nc2-c2ccncc2)c1` [Example 14, 3-chloro-5-(2-phenyl-4-(pyridin-4-yl)-1H-imidazol-5-yl)benzoic acid], for which the IC50 in assay [1] (setting [3]) was 0.1 to 1 µM.
On the same count and under the same terms, under `O=C(O)c1cc(-c2cn(-c3ccccc3)nc2-c2ccncc2)ccc1Cl` [Example 15, 2-chloro-5-(1-phenyl-3-(pyridin-4-yl)-1H-pyrazol-4-yl)benzoic acid] stands < 0.1 µM; under `NC(=O)c1cccc(-c2[nH]c(-c3ccccc3)nc2-c2ccncc2)c1` [Example 21, 3-(2-phenyl-4-(pyridin-4-yl)-1H-imidazol-5-yl)benzamide], 1 to 10 µM; under `Cc1ccc(-c2[nH]c(-c3ccccc3)nc2-c2ccncc2)cc1C(=O)O` [Example 27, 2-methyl-5-(2-phenyl-4-(pyridin-4-yl)-1H-imidazol-5-yl)benzoic acid], 0.1 to 1 µM.
